The results in this text go back to patent US12479847B2 (DANA-FARBER CANCER INSTITUTE, INC., priority 2019, dated 2025).

Holding throughout (assay): KINOMEscan (ScanMAX) kinase profiling
Common to all, as to assay type: binding

Assay [1] concerns the target T1, panel of 468 kinases (Homo sapiens, UniProt O60674).
T1 construct: purchased KINOMEscan (ScanMAX) service
As to conditions: JAK2(JH1domain-catalytic); 1 μM; read-out: % control.

In assay [2] the target is T2, panel of 468 kinases (Homo sapiens, UniProt P10721, V559D).
T2 construct: purchased KINOMEscan (ScanMAX) service
T2 sequence (P10721 26-976 V559D): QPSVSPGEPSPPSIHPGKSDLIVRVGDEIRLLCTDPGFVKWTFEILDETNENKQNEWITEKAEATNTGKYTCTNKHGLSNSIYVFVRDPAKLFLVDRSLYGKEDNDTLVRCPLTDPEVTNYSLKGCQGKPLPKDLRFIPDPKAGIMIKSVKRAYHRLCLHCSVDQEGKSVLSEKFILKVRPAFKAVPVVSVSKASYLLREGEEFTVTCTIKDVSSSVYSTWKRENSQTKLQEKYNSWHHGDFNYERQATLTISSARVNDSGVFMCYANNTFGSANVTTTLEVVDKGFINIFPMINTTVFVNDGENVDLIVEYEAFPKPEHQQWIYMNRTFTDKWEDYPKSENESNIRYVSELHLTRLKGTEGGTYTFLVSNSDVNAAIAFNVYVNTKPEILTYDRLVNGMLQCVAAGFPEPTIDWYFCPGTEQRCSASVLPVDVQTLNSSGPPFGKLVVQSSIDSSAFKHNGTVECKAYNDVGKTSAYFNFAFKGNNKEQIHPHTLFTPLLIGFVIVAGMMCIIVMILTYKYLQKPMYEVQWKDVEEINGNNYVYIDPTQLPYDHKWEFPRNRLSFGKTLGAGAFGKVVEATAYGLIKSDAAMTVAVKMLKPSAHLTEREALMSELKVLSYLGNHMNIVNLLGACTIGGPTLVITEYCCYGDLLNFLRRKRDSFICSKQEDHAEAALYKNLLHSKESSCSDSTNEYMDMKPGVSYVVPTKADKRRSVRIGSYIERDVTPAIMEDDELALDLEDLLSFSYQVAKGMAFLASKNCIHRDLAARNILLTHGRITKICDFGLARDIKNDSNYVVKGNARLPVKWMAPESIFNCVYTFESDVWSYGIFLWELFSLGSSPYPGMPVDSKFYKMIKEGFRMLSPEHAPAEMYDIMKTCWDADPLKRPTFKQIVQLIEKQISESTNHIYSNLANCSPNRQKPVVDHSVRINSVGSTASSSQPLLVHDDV
The conditions noted are these: KIT(V559D); 1 μM; read-out: % control.

Assay [3] addresses T3, panel of 468 kinases (Homo sapiens, UniProt P51817).
T3 construct: purchased KINOMEscan (ScanMAX) service
T3 sequence (P51817 1-358): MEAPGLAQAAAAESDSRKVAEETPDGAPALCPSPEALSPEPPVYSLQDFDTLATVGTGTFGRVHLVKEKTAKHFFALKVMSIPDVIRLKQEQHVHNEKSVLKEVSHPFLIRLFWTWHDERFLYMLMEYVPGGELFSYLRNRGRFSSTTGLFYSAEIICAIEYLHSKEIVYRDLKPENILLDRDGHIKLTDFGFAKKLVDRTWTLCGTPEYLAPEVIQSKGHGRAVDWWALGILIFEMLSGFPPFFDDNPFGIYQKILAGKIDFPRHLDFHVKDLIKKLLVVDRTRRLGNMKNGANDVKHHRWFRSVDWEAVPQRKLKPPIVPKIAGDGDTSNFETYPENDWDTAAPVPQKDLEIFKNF
As to conditions: PRKX; 1 μM; read-out: % control.

Assay [4] has as its target T4, panel of 468 kinases (Homo sapiens, UniProt Q04759).
T4 construct: purchased KINOMEscan (ScanMAX) service
The conditions noted are these: PRKCQ; 1 μM; read-out: % control.

The target of assay [5] is T5, panel of 468 kinases (Homo sapiens, UniProt Q13557).
T5 construct: purchased KINOMEscan (ScanMAX) service
T5 sequence (Q13557 whole entry): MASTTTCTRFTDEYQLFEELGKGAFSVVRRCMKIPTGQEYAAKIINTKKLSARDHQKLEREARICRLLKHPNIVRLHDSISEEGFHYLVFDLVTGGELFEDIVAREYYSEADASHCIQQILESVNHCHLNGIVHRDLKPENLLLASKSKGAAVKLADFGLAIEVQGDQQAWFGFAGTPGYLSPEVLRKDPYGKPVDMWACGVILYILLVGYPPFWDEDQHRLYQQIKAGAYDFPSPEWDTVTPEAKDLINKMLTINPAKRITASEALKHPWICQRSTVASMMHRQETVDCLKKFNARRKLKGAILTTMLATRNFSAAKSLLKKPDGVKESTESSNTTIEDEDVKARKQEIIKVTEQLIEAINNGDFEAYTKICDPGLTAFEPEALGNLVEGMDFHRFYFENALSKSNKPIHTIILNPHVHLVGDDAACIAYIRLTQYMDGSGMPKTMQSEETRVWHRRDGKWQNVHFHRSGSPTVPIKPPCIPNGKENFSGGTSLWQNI
The conditions noted are these: CAMK2D; 1 μM; read-out: % control.

Assay [6] addresses T6, panel of 468 kinases (Homo sapiens, UniProt Q5S007).
T6 construct: purchased KINOMEscan (ScanMAX) service
The conditions noted are these: LRRK2; 1 μM; read-out: % control.

Assay [7] concerns the target T7, panel of 468 kinases (Homo sapiens, UniProt Q9H2K8).
T7 construct: purchased KINOMEscan (ScanMAX) service
T7 sequence (Q9H2K8 1-898): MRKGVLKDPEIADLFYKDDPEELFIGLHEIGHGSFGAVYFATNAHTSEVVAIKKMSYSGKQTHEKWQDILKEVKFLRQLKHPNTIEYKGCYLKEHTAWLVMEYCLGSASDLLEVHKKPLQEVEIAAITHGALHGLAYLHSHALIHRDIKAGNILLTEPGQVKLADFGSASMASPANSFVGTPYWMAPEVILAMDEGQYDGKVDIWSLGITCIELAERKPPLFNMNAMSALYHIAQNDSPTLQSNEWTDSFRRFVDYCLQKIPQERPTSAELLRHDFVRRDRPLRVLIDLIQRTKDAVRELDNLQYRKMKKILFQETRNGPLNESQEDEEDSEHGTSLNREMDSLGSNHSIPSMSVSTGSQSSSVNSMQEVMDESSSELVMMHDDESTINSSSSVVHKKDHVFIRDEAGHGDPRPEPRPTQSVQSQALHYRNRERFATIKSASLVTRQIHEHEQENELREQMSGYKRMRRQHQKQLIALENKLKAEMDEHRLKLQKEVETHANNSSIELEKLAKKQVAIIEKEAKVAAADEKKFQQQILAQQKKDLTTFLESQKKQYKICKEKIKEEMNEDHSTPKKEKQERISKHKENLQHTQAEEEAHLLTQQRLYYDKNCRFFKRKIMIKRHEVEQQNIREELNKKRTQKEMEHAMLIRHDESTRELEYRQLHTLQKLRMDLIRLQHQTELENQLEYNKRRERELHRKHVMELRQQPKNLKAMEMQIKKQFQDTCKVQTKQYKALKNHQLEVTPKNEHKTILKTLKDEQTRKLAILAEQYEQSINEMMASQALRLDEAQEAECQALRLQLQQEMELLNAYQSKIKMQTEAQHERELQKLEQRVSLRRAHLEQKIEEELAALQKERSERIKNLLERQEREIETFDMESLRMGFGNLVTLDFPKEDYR
The conditions noted are these: TAOK3; 1 μM; read-out: % control.

T1 sequence (O60674 whole entry): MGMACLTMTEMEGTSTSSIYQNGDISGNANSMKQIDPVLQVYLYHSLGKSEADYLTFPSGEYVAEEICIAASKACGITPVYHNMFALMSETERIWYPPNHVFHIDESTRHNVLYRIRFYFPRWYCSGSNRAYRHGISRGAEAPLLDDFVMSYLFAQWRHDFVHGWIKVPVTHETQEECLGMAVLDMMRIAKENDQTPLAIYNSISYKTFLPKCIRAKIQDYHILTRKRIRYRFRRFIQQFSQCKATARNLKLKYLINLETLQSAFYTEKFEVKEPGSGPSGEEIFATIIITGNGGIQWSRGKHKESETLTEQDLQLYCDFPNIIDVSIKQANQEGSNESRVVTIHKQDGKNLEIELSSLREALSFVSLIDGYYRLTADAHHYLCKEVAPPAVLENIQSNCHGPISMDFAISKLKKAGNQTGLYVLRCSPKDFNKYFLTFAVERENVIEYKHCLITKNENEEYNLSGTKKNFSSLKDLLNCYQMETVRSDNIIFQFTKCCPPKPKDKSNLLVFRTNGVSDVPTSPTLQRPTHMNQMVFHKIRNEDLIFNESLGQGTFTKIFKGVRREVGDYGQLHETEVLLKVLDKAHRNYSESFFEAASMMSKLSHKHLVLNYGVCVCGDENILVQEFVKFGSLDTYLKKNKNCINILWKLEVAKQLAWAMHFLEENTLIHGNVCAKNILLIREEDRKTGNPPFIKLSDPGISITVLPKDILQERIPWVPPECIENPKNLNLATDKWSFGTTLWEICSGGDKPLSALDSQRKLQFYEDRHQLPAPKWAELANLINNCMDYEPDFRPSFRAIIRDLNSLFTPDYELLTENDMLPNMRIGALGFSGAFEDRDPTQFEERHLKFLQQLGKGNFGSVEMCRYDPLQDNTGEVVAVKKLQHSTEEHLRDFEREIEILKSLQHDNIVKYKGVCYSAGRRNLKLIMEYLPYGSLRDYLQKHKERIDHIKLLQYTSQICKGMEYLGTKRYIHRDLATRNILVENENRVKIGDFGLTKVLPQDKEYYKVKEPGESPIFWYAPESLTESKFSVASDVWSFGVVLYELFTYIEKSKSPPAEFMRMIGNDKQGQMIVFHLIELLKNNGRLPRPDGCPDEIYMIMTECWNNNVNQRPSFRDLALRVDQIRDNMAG
T4 sequence (Q04759 whole entry): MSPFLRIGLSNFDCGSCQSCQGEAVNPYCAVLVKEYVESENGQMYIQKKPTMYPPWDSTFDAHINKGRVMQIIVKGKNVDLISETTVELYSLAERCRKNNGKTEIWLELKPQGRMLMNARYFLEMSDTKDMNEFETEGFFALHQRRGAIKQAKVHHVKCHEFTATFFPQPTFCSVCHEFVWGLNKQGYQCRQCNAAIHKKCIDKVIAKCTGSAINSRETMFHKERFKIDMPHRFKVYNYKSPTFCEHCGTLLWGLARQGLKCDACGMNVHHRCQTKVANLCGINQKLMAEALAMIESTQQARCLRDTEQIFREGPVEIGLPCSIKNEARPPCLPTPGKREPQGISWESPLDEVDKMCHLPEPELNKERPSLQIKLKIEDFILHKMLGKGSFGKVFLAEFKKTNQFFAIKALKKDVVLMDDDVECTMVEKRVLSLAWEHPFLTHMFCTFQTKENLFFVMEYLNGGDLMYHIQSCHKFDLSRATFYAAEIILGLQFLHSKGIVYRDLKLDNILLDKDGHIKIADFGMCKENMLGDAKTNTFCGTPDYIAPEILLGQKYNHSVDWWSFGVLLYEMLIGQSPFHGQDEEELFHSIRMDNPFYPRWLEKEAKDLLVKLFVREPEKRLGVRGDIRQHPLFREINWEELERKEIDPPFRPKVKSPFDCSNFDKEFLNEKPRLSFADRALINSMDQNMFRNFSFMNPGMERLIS

Turning to `CNc1nc(Nc2ccc(S(=O)(=O)N3CCC(N4CCOCC4)CC3)cc2OC)nc2[nH]cc(Cl)c12` [Compound 12, 5-chloro-N2-(2-methoxy-4-((4-morpholinopiperidin-1-yl)sulfonyl)phenyl)-N4-methyl-7H-pyrrolo[2,3-d]pyrimidine-2,4-diamine], the remaining binding at 1 µM was found to be 78% on panel of 468 kinases [1]; 80% at panel of 468 kinases [2]; 87% at panel of 468 kinases [3]; 100% on panel of 468 kinases [4]; 96% at panel of 468 kinases [5]; 0.8% at panel of 468 kinases [6]. Moreover, the remaining binding at 1 µM on panel of 468 kinases [7] worked out at 85%.
On to `CNc1nc(Nc2ccc(C(=O)N3CCC(N4CCOCC4)CC3)c3c2OCO3)nc2[nH]cc(Cl)c12` [Compound 75, (7-((5-chloro-4-(methylamino)-7H-pyrrolo[2,3-d]pyrimidin-2-yl)amino)benzo[d][1,3]dioxol-4-yl)(4-morpholinopiperidin-1-yl)methanone], for which the remaining binding at 1 µM on panel of 468 kinases [1] was 24%; on panel of 468 kinases [2], 39%; at panel of 468 kinases [3], 92%; at panel of 468 kinases [4] it was 100%; at panel of 468 kinases [5] it was 89%; on panel of 468 kinases [6], 1.4%. Also, on panel of 468 kinases [7], the remaining binding at 1 µM turned out to be 83%.
Consider `CNc1nc(Nc2ccc(P3(=O)CCN(C4CCOCC4)CC3)cc2OC)nc2[nH]cc(Cl)c12` [Compound 77, 4-(4-((5-chloro-4-(methylamino)-7H-pyrrolo[2,3-d]pyrimidin-2-yl)amino)-3-methoxyphenyl)-1-(tetrahydro-2H-pyran-4-yl)-1,4-azaphosphinane 4-oxide], for which the remaining binding at 1 µM amounted to 58% on panel of 468 kinases [1]; 90% on panel of 468 kinases [2]; 96% on panel of 468 kinases [3]; 95% at panel of 468 kinases [4]; 89% at panel of 468 kinases [5]; 0.4% at panel of 468 kinases [6]. Moreover, the remaining binding at 1 µM at panel of 468 kinases [7] turned out to be 84%.
